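Cells were grown in 96-well plates and exposed to each compound for 48 hours at five concentrations; endpoints were interpolated linearly between bracketing concentrations, or set to the highest concentration if not reached. The concentration for full growth arrest is given as TGI.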
Key:
Experiment in all cases: DTP human tumour cell line panel, 48 h
[1] = system: HS 578T breast
[2] = system: HCT-15 colon
[3] = system: MALME-3M melanoma
[4] = system: HL-60(TB) leukemia
[5] = system: OVCAR-5 ovarian
[6] = system: ACHN renal
[7] = system: SK-MEL-28 melanoma
[8] = system: TK-10 renal
[9] = system: MDA-N
[10] = system: NCI-H460 lung
[11] = system: SK-MEL-5 melanoma
[12] = system: EKVX NSCLC
[13] = system: SF-268 CNS
[14] = system: HOP-92 NSCLC
[15] = system: RPMI-8226 leukemia
[16] = system: BT-549 breast
[17] = system: U251 CNS
[18] = system: T-47D breast
[19] = system: SN12C renal
[20] = system: HOP-62 NSCLC
[21] = system: UO-31 renal
[22] = system: CCRF-CEM leukemia
[23] = system: A549 NSCLC
[24] = system: MOLT-4 leukemia
[25] = system: M14 melanoma
[26] = system: HT29 colon
[27] = system: OVCAR-3 ovarian
[28] = system: IGROV1 ovarian
[29] = system: CAKI-1 renal
[30] = system: SF-539 CNS
[31] = system: KM12 colon
[32] = system: NCI-H23 lung
[33] = system: DU-145 prostate
[34] = system: PC-3 prostate
[35] = system: HCC-2998 colon
[36] = system: NCI-H522 lung
[37] = system: HCT-116 colon
[38] = system: OVCAR-4 ovarian
[39] = system: SK-MEL-2 melanoma
[40] = system: NCI/ADR-RES ovarian
[41] = system: MCF7 breast
[42] = system: NCI-H226 lung
[43] = system: RXF 393 renal
[44] = system: UACC-62 melanoma
[45] = system: SF-295 CNS
[46] = system: OVCAR-8 ovarian
[47] = system: SNB-75 CNS
[48] = system: MDA-MB-231 breast
[49] = system: SK-OV-3 ovarian
[50] = system: K-562 leukemia
[51] = system: MDA-MB-435
[52] = system: COLO 205 colon
[53] = system: SR leukemia
[54] = system: SNB-19 CNS
[55] = system: 786-0 renal
[56] = system: LOX IMVI melanoma
[57] = system: A498 renal
[58] = system: SW-620 colon
[59] = system: UACC-257 melanoma

Measured: TGI

COC(=O)c1c(OC(C)=O)ccc2c1c1c(OC(C)=O)c3ccccc3c(OC(C)=O)c1n2C
34.5 µM: [53]
35.5 µM: [28]
81.2 µM: [3]
38.7 µM: [14]
65.1 µM: [20]
36 µM: [39]
42.1 µM: [11]
99.4 µM: [25]
52.4 µM: [49]
28.3 µM: [36]
52.1 µM: [35]
39.2 µM: [12]
48.1 µM: [4]
85 µM: [6]
49.4 µM: [44]
70.7 µM: [45]
58.9 µM: [37]
51.1 µM: [31]
26.4 µM: [47]
43.2 µM: [50]
77.3 µM: [13]
> 100 µM: [2] | [5] | [7] | [9] | [10] | [19] | [21] | [23] | [26] | [32] | [33] | [34] | [40] | [41] | [42] | [43] | [48] | [51] | [52] | [54]
85.2 µM: [46]
62.5 µM: [1]
67.8 µM: [8]
50.5 µM: [18]
93.5 µM: [38]
94.8 µM: [55]
44.5 µM: [27]
47.4 µM: [15]
39.1 µM: [24]
60 µM: [29]
61.7 µM: [30]
57.1 µM: [16]
90.2 µM: [17]
60.5 µM: [22]

Oc1ccc(-c2nn3c(CCCCCCCCc4nnc5sc(-c6ccc(O)cc6)nn45)nnc3s2)cc1
> 100 µM: [1] | [2] | [3] | [5] | [6] | [7] | [8] | [9] | [10] | [56] | [57] | [11] | [12] | [13] | [14] | [15] | [16] | [17] | [58] | [18] | [19] | [20] | [21] | [22] | [23] | [24] | [25] | [26] | [27] | [29] | [30] | [31] | [32] | [33] | [34] | [35] | [36] | [37] | [38] | [39] | [40] | [41] | [42] | [43] | [44] | [45] | [59] | [46] | [47] | [48] | [49] | [50] | [51] | [52] | [53] | [54] | [55]

CN(C)c1ccc(/C=C/c2nc3ccccc3s2)cc1
> 100 µM: [1] | [2] | [3] | [4] | [5] | [6] | [7] | [8] | [9] | [10] | [56] | [57] | [11] | [12] | [13] | [14] | [15] | [16] | [17] | [58] | [18] | [19] | [20] | [21] | [22] | [23] | [24] | [25] | [26] | [28] | [30] | [31] | [32] | [33] | [34] | [35] | [36] | [37] | [38] | [39] | [40] | [41] | [42] | [43] | [45] | [59] | [46] | [48] | [49] | [50] | [51] | [52] | [53] | [54] | [55]
